Reference: patent US20250195556A1, “COMPOSITIONS, KITS, AND METHODS TO INDUCE ACQUIRED CYTORESISTANCE USING STRESS PROTEIN INDUCERS” (FRED HUTCHINSON CANCER RESEARCH CENTER, priority 2014, published 2025)
“And” between values parts separate entries of the source, which are not always exact repeats. Equal entries are not always repeated.

Columns and labels:
HO-1 = experiment: Renal cortical HO-1 mRNA (RT-PCR) and protein (ELISA) after IV myoglobin, SnPP or both (Example 1); assay type: in vivo, mice
Excerpt: The Glycerol Model of AKI. This is a widely used model of rhabdomyolysis-induced AKI that has been employed worldwide for 50 years. The model was used to test whether prophylactic interventions confer protection against AKI. Basically, the protocol is as follows: Male CD-1 mice (35-45 grams), obtained from Charles River Laboratories, Wilmington, M A were studied. Mice were maintained under standard vivarium conditions and generally housed for 1-3 weeks prior to study. The mice were placed in a cylindrical restraining cage, and then were given a tail vein injection of the test substances (see below) or test substance vehicle. The mice were then returned to their cages. Eighteen hours (hrs) later, the mice were briefly anesthetized by isoflurane inhalation, and given an intramuscular injection of hypertonic (50%) glycerol in a dose of 9 ml/Kg body weight. The dose is divided in two, with half injected into the muscle of each of the hind limbs. The mice were then returned to their cages. Eighteen hrs later, the mice were deeply anesthetized with pentobarbital (50-100 mg/Kg), the abdominal cavity was opened through a midline abdominal incision, a blood sample was obtained from the abdominal vena cava and the kidneys were resected. A kidney cross section was obtained and fixed in formalin for subsequent histologic analysis. The terminal blood samples were analyzed for BUN and creatinine, using commercially available assay kits. The remaining kidney tissue was subjected to cortical dissection, and the cortical tissues were then extracted for protein and RNA. The protein samples were saved for analysis of HO-1 levels, and the RNA samples were subjected to RT-PCR to quantify HO-1 mRNA as well as levels of other stress gene mRNAs (e.g. NGAL, haptoglobin, hemopexin, hepicidin).
Myoglobin+SnPP: To 5 mg of dry myoglobin was added 0.9 ml of PBS+0.1 ml of a stock SnPP solution (50 umole/ml). The resulting final concentrations were 5 mg/ml myoglobin+5 umoles/ml of SnPP. The tail vein was injected with 200 μl of this solution, which equals 1 mg myoglobin+1 umole SnPP. […]
Four hr post myoglobin vs myoglobin+SnPP vs SnPP alone experiments. To confirm that the myoglobin+SnPP has a synergistic effect in inducing HO-1 mRNA and HO-1 protein levels, each of the above combinations have been administered alone via tail vein injection. Four hrs later, the mice were sacrificed as noted above and the kidneys were harvested for assessment of HO-1 mRNA and protein levels. For additional information regarding methods, see Zager et al., Am J Physiol Renal Physiol. 2014 Jul. 30. Pii.

IL-10 [1] = experiment: Cardiac IL-10 mRNA and protein after IV N-Mgb, SnPP or both; assay type: in vivo, mice; settings: for Cardiac mRNA: IL-10: control 0.36
Method: (§1) Thirty-two mice were divided into 4 equal groups: (1) control mice; (2) mice treated with 1 mg of N-Mgb injection (as a bolus through the tail vein); (3) mice treated with […] of SnPP (via tail vein); and (4) mice treated with combined N-Mgb 1 SnPP. After either 4 hours (n=16) or 18 hours (n=16), the mice were deeply anesthetized with pentobarbital (50 mg/kg), the abdomen was opened through a midline abdominal incision, and the kidneys were removed. To determine potential effects on extrarenal organs, a liver lobe and the heart were also removed. The tissues were iced and then extracted for protein and RNA (RNeasy Plus Mini; Qiagen, Valencia, California) and subjected to enzyme linked immunosorbent assay (ELISA) and reverse transcriptase polymerase chain reaction (RT-PCR) for HO-1, haptoglobin, and IL-10 protein and messenger RNAs (mRNAs). Zager et al. J Am Soc Nephrol 2014; 25:998-1012; Zager et al. Am J Physiol 2012; 303: F139-48. As an assessment of renal function, control mice and the 18 hour after N-Mgb+SnPP-treated mice had blood urea nitrogen (BUN) and plasma creatinine levels measured. Additionally, transverse 10% formalin fixed kidney sections ([…]) were cut and stained with hematoxylin and eosin (H&E) and periodic acid Schiff (PAS) to further assess potential injury.

haptoglobin [2] = experiment: Cardiac haptoglobin mRNA and protein after IV N-Mgb, SnPP or both; assay type: in vivo, mice; settings: for Cardiac mRNA: Haptoglobin: control 0.31; for Cardiac protein: Haptoglobin: control 15.6
Method: as §1

Male CD-1 mice = experiment: Glycerol model of rhabdomyolysis-induced AKI (Example 4); assay type: in vivo; settings: IV pretreatment 18 hours before glycerol; 18 hours after glycerol
Method: Assessments of cytoresistance. Glycerol model of rhabdomyolysis-induced AKI. Twenty mice were divided into 4 equal groups (controls, mice treated with N-Mgb, SnPP, and mice treated with N-Mgb+SnPP tail vein injections) as described previously. 18 hours later, the mice were briefly anesthetized with isoflurane and immediately injected with 9 mL/kg of 50% glycerol, administered in equally divided doses into each hind limb. At 18 hours after glycerol injection, the mice were anesthetized with pentobarbital, the abdomen was opened, a blood sample for BUN and creatinine assessments was obtained from the vena cava, and the kidneys were resected. The control post-glycerol group and the N-Mgb+SnPP-pretreated glycerol group had kidney sections stained with H&E.
Calculations and statistics. All values are given as the mean […] standard error of the mean. Statistical comparisons were made by unpaired Student's t test. If multiple comparisons were made, the Bonferroni correction was applied. The severity of renal histologic injury in the glycerol AKI model was graded on a […] (least to most severe tubular necrosis and cast formation observed). The histologic results were compared by Wilcoxon rank sum test. Statistical significance was taken as a P value of <0.05.

IL-10 [3] = experiment: Renal cortical IL-10 mRNA and protein after IV N-Mgb, SnPP or both; assay type: in vivo, mice; settings: for Kidney protein: IL-10: control 304
Excerpt: (§2) Cytoresistance-inducing reagents. […] (#Mb0360; Sigma) was used as the primary cytoresistance-inducing agent. However, because myoglobin (Mgb) has an inherent nephrotoxic potential (particularly under conditions of volume depletion and aciduria), two approaches were used to mitigate Mgb's potential adverse effects. First, the Mgb was converted into a nitrited form by the addition of equimolar amount of sodium (Na) nitrite. In this regard, nitrite is an ambidentate molecule that directly binds 1:1 to myoglobin Fe either via its oxygen or nitrogen component. Cotton et al. Advanced inorganic chemistry. Hobocken, NJ: Wiley-Interscience, 1999:1355; Silaghi-Dumitrescu et al. Nitric Oxide 2014; 42 C: 32-9. […] Rassaf et al. Circ Res 2014; 114:1601-10; Totzeck et al. Circulation 2012; 126:325-34 [J Clin Invest 1992; 89:989-95]; Totzeck et al. PLOS One 2014; 22: e105951; Hendgen-Cotta et al. Proc Natl Acad Sci USA 2008; 105:10256-61.
as §1

haptoglobin [4] = experiment: Renal cortical haptoglobin mRNA and protein after IV N-Mgb, SnPP or both; assay type: in vivo, mice
Excerpt: as §2, §1

## C=Cc1c2[n-]c(c1C)/C=c1\[n-]/c(c(C)c1C=C)=C\c1[n-]c(c(CCC(=O)O)c1C)/C=c1\[n-]c(c(C)c1CCC(=O)O)=C2.[Sn+4] [SnPP, tin protoporphyrin, reference compound]
HO-1; cortex, 4 hr IV, 1 mg myoglobin, 1 μmole SnPP, PBS 13.5, carrier 21.5
  HO-1 protein expression (by ELISA), Average: 34.4 ng HO-1/mg protein
HO-1; cortex, 4 hr IV, 1 mg myoglobin, 1 μmole SnPP, individual mice
  HO-1 protein expression (by ELISA): 31.5 ng HO-1/mg protein and 20.5 ng HO-1/mg protein and 53.6 ng HO-1/mg protein and 32.2 ng HO-1/mg protein
HO-1; kidney, 4 hr post IV injection, control average 1.93
  HO-1/GAPDH mRNA, Average: 6.94
HO-1; kidney, 4 hr post IV injection, individual mice
  HO-1/GAPDH mRNA: 9.72 and 8.25 and 6.95 and 2.85
IL-10 [1]; 4 h after Rx
  Cardiac mRNA: IL-10: 0.58 ± 0.16
IL-10 [1]; 4 h after Rx, control 8.1
  Cardiac protein: IL-10: 15.8 ± 10^
IL-10 [1]; 18 h after Rx
  Cardiac mRNA: IL-10: 0.53 ± 0.10
IL-10 [1]; 18 h after Rx, control 8
  Cardiac protein: IL-10: 23.4 ± 14^
Haptoglobin [2]; 4 h after Rx
  Cardiac mRNA: Haptoglobin: 0.52 ± 0.21
  Cardiac protein: Haptoglobin: 19.1 ± 2.1
Haptoglobin [2]; 18 h after Rx
  Cardiac mRNA: Haptoglobin: 0.59 ± 0.17
  Cardiac protein: Haptoglobin: 96.1 ± 36.2
Male CD-1 mice
  Protection against glycerol-induced AKI (BUN/creatinine levels): virtually no effect
IL-10 [3]; 4 h after Rx, control 0.56
  Kidney mRNA: IL-10: 0.39 ± 0.15
IL-10 [3]; 4 h after Rx
  Kidney protein: IL-10: 550 ± 86
IL-10 [3]; 18 h after Rx, control 0.56
  Kidney mRNA cortex: IL-10: 0.18 ± 0.09
IL-10 [3]; 18 h after Rx
  Kidney protein: IL-10: 454 ± 51
Haptoglobin [4]; 4 h after Rx, control 0.20
  Kidney mRNA: Haptoglobin: 0.19 ± 0.01
Haptoglobin [4]; 4 h after Rx, control 7.9
  Kidney protein: Haptoglobin: 13.1 ± 1.3
Haptoglobin [4]; 18 h after Rx, control 0.20
  Kidney mRNA cortex: Haptoglobin: 0.23 ± 0.08
Haptoglobin [4]; 18 h after Rx, control 10.3
  Kidney protein: Haptoglobin: 53.5 ± 17.2
